Results reported in ChEMBL document CHEMBL1201862, “PubChem BioAssay data set” (2004).
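A five-concentration, 48-hour dose response in 96-well plates underlies each endpoint, interpolated linearly between surrounding concentrations. The concentration for 50% growth inhibition is given as GI50.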 Calls of active or inactive are those of the source. Rule as the data show it: active = GI50 up to about 1.1 µM and inactive = higher.

How the values were obtained:
Assay in all cases: DTP human tumour cell line panel, 48 h
NCI-H522 = tested on: NCI-H522
HCC 2998 = tested on: HCC 2998
HT-29 = tested on: HT-29
NCI-H460 = tested on: NCI-H460
MOLT-4 = tested on: MOLT-4
LOX IMVI = tested on: LOX IMVI
SF-268 = tested on: SF-268
OVCAR-8 = tested on: OVCAR-8
TK-10 = tested on: TK-10
K562 = tested on: K562
CCRF-CEM = tested on: CCRF-CEM
UO-31 = tested on: UO-31
COLO 205 = tested on: COLO 205
A549 = tested on: A549
UACC-257 = tested on: UACC-257
SW-620 = tested on: SW-620
SK-MEL-5 = tested on: SK-MEL-5
HCT-116 = tested on: HCT-116
A498 = tested on: A498
M19-MEL = tested on: M19-MEL

| Compound | GI50 (NCI-H522) | GI50 (HCC 2998) | GI50 (HT-29) | GI50 (NCI-H460) | GI50 (MOLT-4) | GI50 (LOX IMVI) | GI50 (SF-268) | GI50 (OVCAR-8) | GI50 (TK-10) | GI50 (K562) | GI50 (CCRF-CEM) | GI50 (UO-31) | GI50 (COLO 205) | GI50 (A549) | GI50 (UACC-257) | GI50 (SW-620) | GI50 (SK-MEL-5) | GI50 (HCT-116) | GI50 (A498) | GI50 (M19-MEL) |
| --- | --- | --- | --- | --- | --- | --- | --- | --- | --- | --- | --- | --- | --- | --- | --- | --- | --- | --- | --- | --- |
| Cc1ccc(S(=O)(=O)N2CCCN(S(=O)(=O)c3ccc(C)cc3)CC2)cc1 | > 100 µM (inactive) | > 100 µM (inactive) | > 100 µM (inactive) | > 100 µM (inactive) | > 100 µM (inactive) | 0.0578 µM (active) | > 100 µM (inactive) | > 100 µM (inactive) | > 100 µM (inactive) | > 100 µM (inactive) | > 100 µM (inactive) | > 100 µM (inactive) | > 100 µM (inactive) | > 10 µM (inactive) | > 100 µM (inactive) | > 100 µM (inactive) | > 100 µM (inactive) | > 100 µM (inactive) | 2.75 µM (inactive) |  |
| COC(=O)C1C(C(=O)OC)N(Cc2ccccc2)C(=O)N1Cc1ccccc1 (stereo not given) | 37.5 µM (inactive) | > 100 µM (inactive) | > 100 µM (inactive) | 69.5 µM (inactive) | 22.8 µM (inactive) | > 100 µM (inactive) | > 100 µM (inactive) | > 100 µM (inactive) | > 100 µM (inactive) | 45.6 µM (inactive) | 57.4 µM (inactive) | 87.7 µM (inactive) | > 100 µM (inactive) | > 100 µM (inactive) | 76 µM (inactive) | > 100 µM (inactive) | 58.5 µM (inactive) | > 100 µM (inactive) |  |  |
| CC(=O)OC1(C#N)CC2OC1C1C2N=NN1C(=O)OC(C)(C)C (stereo not given) | > 100 µM (inactive) | 44.5 µM (inactive) | 39.4 µM (inactive) | 32 µM (inactive) | 50.1 µM (inactive) | 11.5 µM (inactive) | 37.1 µM (inactive) | 34.6 µM (inactive) | 20.4 µM (inactive) | 33.5 µM (inactive) | 15.2 µM (inactive) | 73.3 µM (inactive) | > 100 µM (inactive) | 34.4 µM (inactive) | 35.4 µM (inactive) | 30.7 µM (inactive) | 35.3 µM (inactive) | 12.5 µM (inactive) |  | 16.5 µM (inactive) |
| CCC(C(=O)c1ccc(OC)c(OC)c1)N(C(=O)C(F)(F)F)C(C)c1ccccc1 (stereo not given) | > 100 µM (inactive) | > 100 µM (inactive) | > 100 µM (inactive) | > 100 µM (inactive) | > 100 µM (inactive) | > 100 µM (inactive) | 83.9 µM (inactive) | > 100 µM (inactive) | > 100 µM (inactive) | > 100 µM (inactive) | > 100 µM (inactive) | > 100 µM (inactive) | > 100 µM (inactive) | > 100 µM (inactive) | > 100 µM (inactive) | > 100 µM (inactive) | > 100 µM (inactive) | > 100 µM (inactive) |  |  |
| Cc1nc2[nH]ncn2c(=O)c1CCCl | > 10 µM (inactive) | > 10 µM (inactive) | > 10 µM (inactive) | > 10 µM (inactive) | > 10 µM (inactive) | > 10 µM (inactive) | > 10 µM (inactive) | > 10 µM (inactive) | > 10 µM (inactive) | > 10 µM (inactive) | > 10 µM (inactive) | > 10 µM (inactive) | > 10 µM (inactive) | > 10 µM (inactive) |  | > 10 µM (inactive) | > 10 µM (inactive) | > 10 µM (inactive) | > 10 µM (inactive) |  |
| COc1ccc(C2COc3c(ccc(O)c3C)C2)cc1OC (stereo not given) | 39.7 µM (inactive) | 27.9 µM (inactive) | 65.8 µM (inactive) | 62.7 µM (inactive) | 29.2 µM (inactive) | 12.9 µM (inactive) | 106 µM (inactive) | 113 µM (inactive) |  | 59.6 µM (inactive) | 40.7 µM (inactive) | 66.1 µM (inactive) | 61.7 µM (inactive) | 60.8 µM (inactive) | 149 µM (inactive) | 81.3 µM (inactive) | 11.7 µM (inactive) | 48.3 µM (inactive) | 11.2 µM (inactive) | 83 µM (inactive) |
| CC(C)(O)[C@H](CCO)O[Si](c1ccccc1)(c1ccccc1)C(C)(C)C | 6.67 µM (inactive) | 6.01 µM (inactive) | 11.1 µM (inactive) | 11.2 µM (inactive) | 4.25 µM (inactive) | 11.1 µM (inactive) | 10.5 µM (inactive) | 10.9 µM (inactive) | 13.2 µM (inactive) | 7.74 µM (inactive) | 10.6 µM (inactive) | 11 µM (inactive) | 14.4 µM (inactive) | 7.35 µM (inactive) | 15.5 µM (inactive) | 12.8 µM (inactive) | 14.2 µM (inactive) | 4.9 µM (inactive) | 16.5 µM (inactive) | 14.9 µM (inactive) |
| COc1ccc(/C(Cl)=C(\C=O)c2ccccc2)cc1OC | 7.1 µM (inactive) | 38.5 µM (inactive) | 28.1 µM (inactive) | 28.8 µM (inactive) | 6.85 µM (inactive) | 13.2 µM (inactive) | 33.1 µM (inactive) | 12.7 µM (inactive) | 21.4 µM (inactive) | 19.2 µM (inactive) | 15.1 µM (inactive) | 13.5 µM (inactive) | 10.1 µM (inactive) | 38.7 µM (inactive) | 15.2 µM (inactive) | 12.9 µM (inactive) | 25.4 µM (inactive) | 23.4 µM (inactive) |  | 13.6 µM (inactive) |
| C=C1C(=O)O[C@@H]2OC3(C)CCC4C(C)CCC1C42OO3 (stereo not given in full) | 1.7 µM (inactive) | 13.1 µM (inactive) | 2.67 µM (inactive) | 2.38 µM (inactive) | 1.52 µM (inactive) | 2.36 µM (inactive) | 2.94 µM (inactive) | 3.09 µM (inactive) |  | 2.07 µM (inactive) | 1.47 µM (inactive) | 9.84 µM (inactive) | 3.46 µM (inactive) | 4.99 µM (inactive) | 3.18 µM (inactive) | 3.05 µM (inactive) | 4.88 µM (inactive) | 1.53 µM (inactive) | 3.33 µM (inactive) | 3.49 µM (inactive) |
| CC(=O)OCC1OC(NC(=O)N(CCCl)N=O)C(OC(C)=O)C(OC(C)=O)C1OC(C)=O (stereo not given) | > 100 µM (inactive) | > 100 µM (inactive) | > 100 µM (inactive) | > 83.8 µM (inactive) | > 31.6 µM (inactive) | 44.8 µM (inactive) | > 80.9 µM (inactive) | > 100 µM (inactive) |  | > 100 µM (inactive) | > 100 µM (inactive) | > 100 µM (inactive) | > 100 µM (inactive) | > 100 µM (inactive) | > 100 µM (inactive) | > 100 µM (inactive) | > 31.6 µM (inactive) | > 100 µM (inactive) | > 100 µM (inactive) | > 100 µM (inactive) |
| COc1ccc(-c2oc3cc(OC(C)=O)cc(OC(C)=O)c3c(=O)c2OC)cc1 | 2.12 µM (inactive) | 18.3 µM (inactive) | 16.7 µM (inactive) | 16.9 µM (inactive) | 20.2 µM (inactive) | 14.5 µM (inactive) | 15.4 µM (inactive) | 17 µM (inactive) | 21.8 µM (inactive) | 9.77 µM (inactive) | 18.2 µM (inactive) | 19.6 µM (inactive) | 15.9 µM (inactive) | 20.7 µM (inactive) | 19.7 µM (inactive) | 16.1 µM (inactive) | 12.4 µM (inactive) | 21 µM (inactive) | 21.7 µM (inactive) |  |
| NC(CCCCCP(=O)(O)O)C(=O)O (stereo not given) [AP-7] | > 100 µM (inactive) | > 100 µM (inactive) | > 100 µM (inactive) | > 100 µM (inactive) | > 100 µM (inactive) | > 100 µM (inactive) | > 100 µM (inactive) | > 100 µM (inactive) | > 100 µM (inactive) | > 100 µM (inactive) | > 100 µM (inactive) | > 100 µM (inactive) | > 100 µM (inactive) | > 100 µM (inactive) | > 100 µM (inactive) | > 100 µM (inactive) | > 100 µM (inactive) | > 100 µM (inactive) |  |  |
